Results as given in paper doi:10.1101/2023.04.22.537907v1 (biorxiv, 2023).

Target: PcVHA-a (vacuolar H+-ATPase subunit a; Pc106526)
Assay: microscale thermophoresis with lysate of mCherry-fusion transformants
Type: binding, Phytophthora capsici
Details: 25 °C; 20% MST power; total protein lysate; mCherry-only control

Kd: 17.9 µM
SMILES: O=C(NCc1ncc(C(F)(F)F)cc1Cl)c1c(Cl)cccc1Cl [fluopicolide]
